Laboratory results: publication PMC8070745, “FEN1 Blockade for Platinum Chemo-Sensitization and Synthetic Lethality in Epithelial Ovarian Cancers” (Cancers, 2021)

Assays:
[1] = target: T1, Recombinant human FEN1 protein (Homo sapiens, UniProt P39748); assay: radio-labeled FEN1 cleavage assay; type: biochemical; settings: 3 nM FEN1, 37 °C, 10 min
T1 construct: made in house

[2] = system: MRE11 deficient A2780cis cells; assay: FEN1 inhibitor cytotoxicity, MRE11 deficient A2780cis; type: cell-based, human; settings: vs A2780cis control
A2780cis cells = assay: γH2AX analysis, A2780cis; type: cell-based, human; settings: FEN1i plus cisplatin
Experimental: (§1) Graphical representation and statistical analysis of mean tail moment was performed in GraphPad Prism 6 (GraphPad, La Jolla, USA). All experiments were done in duplicate three times.
(§2) γH2AX FACS: For monitoring DNA double strand break accumulation by γH2AX FACS, 1.05×104 Cells/cm2 were seeded in 6-well plates and left overnight at 37°C in a 5% CO 2 atmosphere. Cisplatin (5µM) or FEN1i (10µM) was later added to cells and incubated for 24h and 48h at 37°C in a 5% CO2 atmosphere. Cells were collected by trypsinization, washed […]
(§3) with ice cold PBS and fixed in 70% ethanol for 1h at -20°C. After removal of the fixative solution by centrifugation, cells were stained with 2 µg/ml of phospho-Histone (γH2AX) Ser139 (16202A, Millipore, UK) to detect DSBs.
(§4) Cell cycle progression: Cells were treated with 20 µg/ml RNase A (12091021, Invitrogen) and then 10 µg/ml Propidium Iodide (P4170, Sigma Aldrich) was added to determine the cell cycle distribution. The samples were analysed on a Beckman-Coulter FC500 flow cytometer using a 488nm laser for excitation and emission data for PI collected using a 620nm bandpass filter (FL3) and a 525nm bandpass filter (FL1) for FITC-anti-phospho-Histone H2A.X. […]
(§5) Graphical representation and statistical analysis was performed in GraphPad Prism 7 (GraphPad, La Jolla, USA). […]

PEO4 cells = assay: γH2AX analysis, PEO4; type: cell-based, human; settings: FEN1i plus cisplatin
Experimental: as §1, §2, §3, §4, §5

FEN1 mRNA in A2780 cells = assay: qRT-PCR FEN1 mRNA expression, A2780; type: cell-based, human; settings: 24 h exposure to cisplatin
Experimental: (§6) (1:200, ab26343). Infrared dye-labelled secondary antibodies (Li-Cor) [IRDye 800CW Donkey Anti-Rabbit IgG and IRDye 680CW Donkey Anti-Mouse IgG] were incubated at a dilution of 1:10000 for 1 h. Membranes were scanned with a LiCor Odyssey machine (700 and 800 nm) to determine protein expression. ß-Tubulin or ß-actin was used as a loading controls for the whole cell lysates. GADPH and YYI were used as loading controls to cytoplasmic and nuclear fractions, respectively. First incubation was with FEN1 antibody and then imaged. This was followed by incubation with loading control and then imaged for analysis. Bar charts show means of optical density (O.D.) ± S.D and all data is representative of at least three independent experiments. qRT-PCR analysis of FEN1 gene expre ssion: RNA was extracted using the RNeasy Mini Kit (74104, Qiagen) and quantified using a Nanodrop 2000c (Thermo Fisher Scientific). cDNA synthesis was performed using the RT2 First Strand Kit (330404, Qiagen). Real time PCR was carried out on an Applied Biosystems […] FAST cycler.
(§7) Neutral COMET assay: 1.0x10^5 cells per well were seeded in 6 well tissue culture plates and incubated at 37°C and 5% CO2 overnight. […] Fifty comets were scored per sample using Comet Assay III/IV image analysis software (Perceptive Instruments, Bury St Edmonds, UK). […]

[3] = system: FEN1 mRNA in A2780cis cells; assay: qRT-PCR FEN1 mRNA expression, A2780cis; type: cell-based, human; settings: 24 h exposure to cisplatin
Experimental: as §6, §7

[4] = system: FEN1 nuclear level in A2780cis cells; assay: Nuclear extract western blot for FEN1, A2780cis; type: cell-based, human; settings: 5 µM cisplatin, 24 h
Experimental: Clonogenic assay: In the clonogenic assay (colony formation assays), 32 cells/cm2 were seeded in 6-well plates and left at 37°C in a 5% CO2 atmosphere. Cisplatin (5µM) and/or FEN1i (10µM) and/or Importazole (5 µM, Selleckem, S8446 ) were added at the indicated concentrations and the plates were left at 37 °C in a 5% CO 2 atmosphere for 14 days. Later, the plates were washed with PBS, fixed and stained with a crystal violet, acetic acid and methanol solution and colonies were counted.
Nuclear and cytoplasmic extract: Cells were harvest by trypsinization, washed with PBS and centrifuged at 1000×g for 5min. […] Protein level were then quantified prior to use in western blots.
BCA protein quantification: Protein quantification was done using the Pierce BCA kit assay by Thermo Fisher Scientific. […] The plate was incubated at 37°C during 30 min in the dark and the absorbance was measured by FLUOstar OPTIMA, UK/ Infinite® F50 (UK) microplate reader at 590 nm. […]
Western Blot Analysis: Cells were harvested and lysed in RIPA buffer (R0278, Sigma) with the addition of protease cocktail inhibitor (P8348, Sigma), phosphatase inhibitor cocktail 2 (P5726, Sigma) and phosphatase inhibitor cocktail 3 (P0044, Sigma) and stored at - 20°C. Protein was quantified using BCA Protein Assay kit (23225, Thermo Fisher). […]

T1 sequence (P39748 whole entry): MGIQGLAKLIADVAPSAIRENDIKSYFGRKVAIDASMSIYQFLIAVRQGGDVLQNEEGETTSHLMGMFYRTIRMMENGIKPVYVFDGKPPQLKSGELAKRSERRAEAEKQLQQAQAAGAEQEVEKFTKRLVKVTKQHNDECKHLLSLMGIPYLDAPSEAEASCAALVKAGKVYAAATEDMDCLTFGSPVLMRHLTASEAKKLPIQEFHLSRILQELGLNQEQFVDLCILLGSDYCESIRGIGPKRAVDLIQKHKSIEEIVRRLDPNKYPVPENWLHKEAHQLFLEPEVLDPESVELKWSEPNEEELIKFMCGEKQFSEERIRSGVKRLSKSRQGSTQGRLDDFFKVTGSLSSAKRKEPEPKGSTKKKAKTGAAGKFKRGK

| Structure (SMILES) | FEN1 inhibition in cleavage assay [1] | sensitivity to FEN1 inhibitor [2] | γH2AX nuclear foci (A2780cis cells) | γH2AX nuclear foci (PEO4 cells) | FEN1 mRNA expression after cisplatin (FEN1 mRNA in A2780 cells) | FEN1 mRNA expression after cisplatin [3] | nuclear level of FEN1 after cisplatin [4] |
| --- | --- | --- | --- | --- | --- | --- | --- |
| Cc1csc2c1c(=O)n(O)c(=O)n2-c1ccccc1 [PTPD, 3-hydroxy-5-methyl-1-phenylthieno [2,3 d]pyrimidine-2,4(1H,3H)-dione] | confirmed FEN1 inhibition | did not observe increased sensitivity | induced nuclear γH2AX nuclear foci accumulation | increased nuclear γH2AX nuclear foci accumulation |  |  |  |
| N.N.[Cl][Pt][Cl] [cisplatin] |  |  |  |  | transient induction of FEN1 mRNA expression on day 1 | increased by day 1 and persisted at least until day 4 | significantly increased |
